Measurements published in the NIST ThermoML archive (doi:10.1021/acs.jced.8b00554).

Assay: xn = mol fraction of the nth substance listed
Details: Liquid, Vibrating tube method

CCCCCCCCC [nonane] + CCCO
Details | mass density [kg/m3]
323.15 K, 12010 kPa, x2 = 0.8941 | 768.14
323.15 K, 12020 kPa, x2 = 0.1231 | 706.6
323.15 K, 12020 kPa, x2 = 0.2315 | 710.98
323.15 K, 12020 kPa, x2 = 0.4272 | 720.79
323.15 K, 13000 kPa, x2 = 0.1231 | 707.48
323.15 K, 13000 kPa, x2 = 0.4272 | 721.68
323.15 K, 13000 kPa, x2 = 0.7021 | 743.81
323.15 K, 13010 kPa, x2 = 0.2315 | 711.85
323.15 K, 13010 kPa, x2 = 0.8941 | 768.99
323.15 K, 13020 kPa, x2 = 0.3229 | 715.95
323.15 K, 14000 kPa, x2 = 0.1231 | 708.35
323.15 K, 14000 kPa, x2 = 0.2315 | 712.73
323.15 K, 14000 kPa, x2 = 0.8941 | 769.85
323.15 K, 14010 kPa, x2 = 0.4272 | 722.55
323.15 K, 14020 kPa, x2 = 0.3229 | 716.82
323.15 K, 14020 kPa, x2 = 0.7021 | 744.68
323.15 K, 15000 kPa, x2 = 0.1231 | 709.2
323.15 K, 15000 kPa, x2 = 0.3229 | 717.67
323.15 K, 15010 kPa, x2 = 0.7021 | 745.54
323.15 K, 15010 kPa, x2 = 0.8941 | 770.68
323.15 K, 15020 kPa, x2 = 0.2315 | 713.58
323.15 K, 15020 kPa, x2 = 0.4272 | 723.42
323.15 K, 16010 kPa, x2 = 0.1231 | 710.02
323.15 K, 16010 kPa, x2 = 0.8941 | 771.51
323.15 K, 16020 kPa, x2 = 0.2315 | 714.42
323.15 K, 16020 kPa, x2 = 0.3229 | 718.52
323.15 K, 16020 kPa, x2 = 0.4272 | 724.26
323.15 K, 16020 kPa, x2 = 0.7021 | 746.38
323.15 K, 17000 kPa, x2 = 0.2315 | 715.27
323.15 K, 17000 kPa, x2 = 0.3229 | 719.35
323.15 K, 17000 kPa, x2 = 0.8941 | 772.34
323.15 K, 17010 kPa, x2 = 0.4272 | 725.1
323.15 K, 17020 kPa, x2 = 0.1231 | 710.86
323.15 K, 17020 kPa, x2 = 0.7021 | 747.22
323.15 K, 18000 kPa, x2 = 0.1231 | 711.67
323.15 K, 18010 kPa, x2 = 0.2315 | 716.08
323.15 K, 18010 kPa, x2 = 0.3229 | 720.19
323.15 K, 18010 kPa, x2 = 0.4272 | 725.91
323.15 K, 18010 kPa, x2 = 0.7021 | 748.04
323.15 K, 18010 kPa, x2 = 0.8941 | 773.16
323.15 K, 19010 kPa, x2 = 0.1231 | 712.48
323.15 K, 19010 kPa, x2 = 0.2315 | 716.87
323.15 K, 19010 kPa, x2 = 0.3229 | 720.99
323.15 K, 19010 kPa, x2 = 0.4272 | 726.74
323.15 K, 19020 kPa, x2 = 0.7021 | 748.85
323.15 K, 19020 kPa, x2 = 0.8941 | 773.95
323.15 K, 20000 kPa, x2 = 0.4272 | 727.54
323.15 K, 20010 kPa, x2 = 0.2315 | 717.66
323.15 K, 20010 kPa, x2 = 0.8941 | 774.74
323.15 K, 20020 kPa, x2 = 0.1231 | 713.24
323.15 K, 20020 kPa, x2 = 0.3229 | 721.77
323.15 K, 20020 kPa, x2 = 0.7021 | 749.67
333.15 K, 100 kPa, x2 = 0.1231 | 686.98
333.15 K, 100 kPa, x2 = 0.2315 | 690.52
333.15 K, 100 kPa, x2 = 0.3229 | 694.34
333.15 K, 100 kPa, x2 = 0.4272 | 699.84
333.15 K, 100 kPa, x2 = 0.7021 | 721.88
333.15 K, 100 kPa, x2 = 0.8941 | 747.76
333.15 K, 1000 kPa, x2 = 0.8941 | 748.19
333.15 K, 1010 kPa, x2 = 0.2315 | 691.2
333.15 K, 1010 kPa, x2 = 0.3229 | 694.86
333.15 K, 1010 kPa, x2 = 0.4272 | 700.34
333.15 K, 1010 kPa, x2 = 0.7021 | 722.39
333.15 K, 1020 kPa, x2 = 0.1231 | 687.08
333.15 K, 2000 kPa, x2 = 0.3229 | 695.92
333.15 K, 2000 kPa, x2 = 0.4272 | 701.38
333.15 K, 2010 kPa, x2 = 0.1231 | 688.14
333.15 K, 2010 kPa, x2 = 0.2315 | 692.25
333.15 K, 2010 kPa, x2 = 0.8941 | 749.18
333.15 K, 2020 kPa, x2 = 0.7021 | 723.42
333.15 K, 3000 kPa, x2 = 0.1231 | 689.17
333.15 K, 3000 kPa, x2 = 0.2315 | 693.28
333.15 K, 3010 kPa, x2 = 0.4272 | 702.44
333.15 K, 3010 kPa, x2 = 0.8941 | 750.17
333.15 K, 3020 kPa, x2 = 0.3229 | 696.96
333.15 K, 3020 kPa, x2 = 0.7021 | 724.44
333.15 K, 4000 kPa, x2 = 0.7021 | 725.48
333.15 K, 4010 kPa, x2 = 0.1231 | 690.19
333.15 K, 4010 kPa, x2 = 0.2315 | 694.31
333.15 K, 4010 kPa, x2 = 0.4272 | 703.48
333.15 K, 4020 kPa, x2 = 0.3229 | 697.98
333.15 K, 4020 kPa, x2 = 0.8941 | 751.17
333.15 K, 5010 kPa, x2 = 0.2315 | 695.33
333.15 K, 5010 kPa, x2 = 0.3229 | 699.01
333.15 K, 5010 kPa, x2 = 0.4272 | 704.5
333.15 K, 5010 kPa, x2 = 0.8941 | 752.16
333.15 K, 5020 kPa, x2 = 0.1231 | 691.22
333.15 K, 5020 kPa, x2 = 0.7021 | 726.49
333.15 K, 6000 kPa, x2 = 0.7021 | 727.51
333.15 K, 6000 kPa, x2 = 0.8941 | 753.15
333.15 K, 6010 kPa, x2 = 0.2315 | 696.33
333.15 K, 6010 kPa, x2 = 0.4272 | 705.51
